Several values for one entry are separate records, joined by “and”; a condition that tells them apart may be missing. Identical values can stand only once.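 96-well plates; 48 h exposure; 5 concentrations. Endpoints by linear interpolation between flanking doses. Not reached: highest tested concentration assigned. GI50 = concentration required for 50% inhibition of growth. The concentration for full growth arrest is given as TGI.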
The compounds below were run on SF-539 CNS (assay: DTP human tumour cell line panel, 48 h).

Compared with `COc1ccc(C(=O)c2cc(OC)c(OC)c(OC)c2)cc1OC`, `COC(=O)c1cc2c(o1)-c1nccc3c1c(nc1ccccc13)C2=O` is 1.9-fold higher in TGI: 5.14 µM for the first, 9.7 µM for the second.

Compared with `CCCc1cc(=O)n2c(C(=O)Nc3ccc(Cl)cc3C)c(C(=O)Nc3ccc(F)cc3)sc2n1`, `COc1ccc(-c2nn(-c3cccc(Cl)c3)cc2-c2cc(-c3ccccc3)[nH]c(=O)c2C#N)cc1` is 8.3-fold lower in TGI: 22.7 µM for the first, 2.75 µM for the second.

Compared with `CN(C)CCNCCN`, `CC1CC(O)C(=O)C(O[C@@H]2C[C@@H]3CC[C@@H]4[C@H](CC[C@]5(C)C(C6=CC(=O)OC6)CC[C@]45O)[C@@]3(C=O)C[C@H]2O)O1` (stereo partly drawn) is lower in TGI: greater than 100 µM for the first, 0.0586 µM for the second.

With `O=C(Nc1cc(Nc2ncccc2-c2ncnc3nc[nH]c23)ccc1F)c1cc(C(F)(F)F)cc(C(F)(F)F)c1` the TGI was 3.04 µM.

Compared with `CCCc1cc(=O)n2c(C(=O)Nc3ccc(Cl)cc3C)c(C(=O)Nc3ccc(F)cc3)sc2n1`, `COc1ccc(-c2nn(-c3cccc(Cl)c3)cc2-c2cc(-c3ccccc3)[nH]c(=O)c2C#N)cc1` is 6-fold lower in GI50: 6.02 µM for the first, 1.01 µM for the second.

First: COC(=O)c1cc2c(o1)-c1nccc3c1c(nc1ccccc13)C2=O
Second: O=C(Nc1cc(Nc2ncccc2-c2ncnc3nc[nH]c23)ccc1F)c1cc(C(F)(F)F)cc(C(F)(F)F)c1
The GI50 of the first is 2.1-fold higher: 2.69 µM for the first, 1.3 µM for the second.

These compounds were tested on ACHN renal (assay: DTP human tumour cell line panel, 48 h).

Going from `O=C(O)c1cccc(COc2ccc([N+](=O)[O-])cc2Cl)c1` to `COC(=O)c1cc2c(o1)-c1nccc3c1c(nc1ccccc13)C2=O`, the GI50 falls from greater than 100 µM to 2.27 µM.

Going from `O=C(NCc1ccc(Cn2c(=O)sn(-c3ccccc3)c2=O)cc1)OCc1ccc2cccc(O)c2n1` to `COc1ccc(-c2nn(-c3cccc(Cl)c3)cc2-c2cc(-c3ccccc3)[nH]c(=O)c2C#N)cc1`, the GI50 rises from 0.393 µM to 1.83 µM (4.7-fold).

First: Nc1cc2c(cc1Br)[nH]c(=O)c1ccccc12
Second: O=C1c2ccccc2-c2c1c1ccccc1c(=O)n2CCN1CCNCC1
The GI50 of the first is 9.8-fold higher: 3.09 µM for the first, 0.316 µM for the second.

First: COc1ccc(-c2nccn2-c2ccc(OC)cc2)cc1
Second: COc1ccc(-c2cnnn2-c2nonc2-n2cccc2)cc1
The GI50 of the first is 5.4-fold higher: 5.64 µM for the first, 1.05 µM for the second.

Going from `COc1cc2c(/C=N\N=C(N)N)c[nH]c2cc1C` to `CCCc1cc(=O)n2c(C(=O)Nc3ccc(Cl)cc3C)c(C(=O)Nc3ccc(F)cc3)sc2n1`, the GI50 falls from 24.3 µM to 3.8 µM (6.4-fold).

`Cn1cc(-c2csc(-c3cn(CCCCN4CCCCC4)c4ccccc34)n2)c2cccnc21` and `O=C(Nc1cc(Nc2ncccc2-c2ncnc3nc[nH]c23)ccc1F)c1cc(C(F)(F)F)cc(C(F)(F)F)c1` are within 1.5-fold of each other in GI50: 1.67 µM for the first, 1.42 µM for the second.

First: CC(C)[C@H](O)C(=O)N[C@@H](C)C(=O)N[C@@H]1C(=O)N(C)CCc2ccccc21
Second: C=CC(=O)N1CN(C(=O)C=C)CN(C(=O)C=C)C1
The GI50 of the first is higher: greater than 100 µM for the first, 1.89 µM for the second.

Compared with `O=C(O)c1cccc(COc2ccc([N+](=O)[O-])cc2Cl)c1`, `COC(=O)c1cc2c(o1)-c1nccc3c1c(nc1ccccc13)C2=O` is lower in TGI: greater than 100 µM for the first, 14.7 µM for the second.

Compared with `COC(=O)C1=COC(C)C2CN3CCc4c([nH]c5ccccc45)C3CC12` (stereo not drawn), `Nc1cc2c(cc1Br)[nH]c(=O)c1ccccc12` is lower in TGI: greater than 100 µM for the first, 20.1 µM for the second.

Going from `O=C(NCc1ccc(Cn2c(=O)sn(-c3ccccc3)c2=O)cc1)OCc1ccc2cccc(O)c2n1` to `COc1ccc(-c2nn(-c3cccc(Cl)c3)cc2-c2cc(-c3ccccc3)[nH]c(=O)c2C#N)cc1`, the TGI rises from 1.47 µM to 10.7 µM (7.3-fold).

`COC(c1ccc(C(C)(C)C)cc1)(c1ccc(C(C)(C)C)cc1)c1ccc(C(C)(C)C)cc1` and `COc1ccc(-c2nccn2-c2ccc(OC)cc2)cc1` cannot be ordered by TGI: greater than 100 µM for the first, greater than 57.4 µM for the second.

`CCC(C)(O)c1cnc(CC(C)C)c(=O)n1O` (stereo not drawn) and `CC(C)[C@H](O)C(=O)N[C@@H](C)C(=O)N[C@@H]1C(=O)N(C)CCc2ccccc21` cannot be ordered by TGI: greater than 100 µM for the first, greater than 100 µM for the second.

First: O=C(/C=C/c1ccccc1)c1ccccc1
Second: O=C1c2ccccc2-c2c1c1ccccc1c(=O)n2CCN1CCNCC1
The TGI of the first is higher: greater than 10 µM for the first, 1.3 µM for the second.

`COc1cc2c(/C=N\N=C(N)N)c[nH]c2cc1C` and `COc1ccc(C(=O)c2cc(OC)c(OC)c(OC)c2)cc1OC` cannot be ordered by TGI: greater than 100 µM for the first, greater than 100 µM for the second.

Going from `Cn1cc(-c2csc(-c3cn(CCCCN4CCCCC4)c4ccccc34)n2)c2cccnc21` to `COc1ccc(-c2cnnn2-c2nonc2-n2cccc2)cc1`, the TGI rises from 3.03 µM to greater than 94 µM.

First: C=CC(=O)N1CN(C(=O)C=C)CN(C(=O)C=C)C1
Second: CCCc1cc(=O)n2c(C(=O)Nc3ccc(Cl)cc3C)c(C(=O)Nc3ccc(F)cc3)sc2n1
The TGI of the first is 3-fold lower: 4.49 µM for the first, 13.4 µM for the second.

Compared with `ClC(Cl)=C1C(=C(Cl)Cl)C(Cl)(Cl)C1(Cl)Cl`, `CC1CC(O)C(=O)C(O[C@@H]2C[C@@H]3CC[C@@H]4[C@H](CC[C@]5(C)C(C6=CC(=O)OC6)CC[C@]45O)[C@@]3(C=O)C[C@H]2O)O1` (stereo partly drawn) is 220-fold lower in TGI: 8.81 µM for the first, 0.0406 µM for the second.

`CN(C)CCNCCN` and `CCCC(=O)C1=C(O)C(Cc2c(O)c(C)c(O)c(C(=O)CCC)c2O)=C(O)C(C)(C)C1=O` cannot be ordered by TGI: greater than 100 µM for the first, greater than 50 µM for the second.

In the case of `O=C(Nc1cc(Nc2ncccc2-c2ncnc3nc[nH]c23)ccc1F)c1cc(C(F)(F)F)cc(C(F)(F)F)c1`, the TGI was 4.27 µM.

For `COC(=O)C1=COC(C)C2CN3CCc4c([nH]c5ccccc45)C3CC12` (stereo not drawn), the GI50 was 32.1 µM and > 100 µM.

Each compound was assayed on EKVX NSCLC (assay: DTP human tumour cell line panel, 48 h).

First: O=C(O)c1cccc(COc2ccc([N+](=O)[O-])cc2Cl)c1
Second: COC(=O)c1cc2c(o1)-c1nccc3c1c(nc1ccccc13)C2=O
The GI50 of the first is 27-fold lower: 0.549 µM for the first, 14.9 µM for the second.

`O=C(NCc1ccc(Cn2c(=O)sn(-c3ccccc3)c2=O)cc1)OCc1ccc2cccc(O)c2n1` and `COc1ccc(-c2nn(-c3cccc(Cl)c3)cc2-c2cc(-c3ccccc3)[nH]c(=O)c2C#N)cc1` are within 1.5-fold of each other in GI50: 1.5 µM for the first, 1.37 µM for the second.

Going from `Nc1cc2c(cc1Br)[nH]c(=O)c1ccccc12` to `O=C1c2ccccc2-c2c1c1ccccc1c(=O)n2CCN1CCNCC1`, the GI50 rises from 4.18 µM to 7.24 µM (1.7-fold).

Going from `COc1ccc(-c2nccn2-c2ccc(OC)cc2)cc1` to `COc1ccc(-c2cnnn2-c2nonc2-n2cccc2)cc1`, the GI50 falls from 41.5 µM to 0.547 µM (76-fold).

`COc1cc2c(/C=N\N=C(N)N)c[nH]c2cc1C` and `CCCc1cc(=O)n2c(C(=O)Nc3ccc(Cl)cc3C)c(C(=O)Nc3ccc(F)cc3)sc2n1` are within 1.5-fold of each other in GI50: 28.3 µM for the first, 21.3 µM for the second.

Compared with `Cn1cc(-c2csc(-c3cn(CCCCN4CCCCC4)c4ccccc34)n2)c2cccnc21`, `O=C(Nc1cc(Nc2ncccc2-c2ncnc3nc[nH]c23)ccc1F)c1cc(C(F)(F)F)cc(C(F)(F)F)c1` is 2.6-fold higher in GI50: 1.58 µM for the first, 4.1 µM for the second.

Compared with `CC(C)[C@H](O)C(=O)N[C@@H](C)C(=O)N[C@@H]1C(=O)N(C)CCc2ccccc21`, `C=CC(=O)N1CN(C(=O)C=C)CN(C(=O)C=C)C1` is lower in GI50: greater than 100 µM for the first, 9.02 µM for the second.

Going from `O=C(O)c1cccc(COc2ccc([N+](=O)[O-])cc2Cl)c1` to `COC(=O)c1cc2c(o1)-c1nccc3c1c(nc1ccccc13)C2=O`, the TGI rises from 4.87 µM to 35 µM (7.2-fold).

Compared with `O=C(NCc1ccc(Cn2c(=O)sn(-c3ccccc3)c2=O)cc1)OCc1ccc2cccc(O)c2n1`, `COc1ccc(-c2nn(-c3cccc(Cl)c3)cc2-c2cc(-c3ccccc3)[nH]c(=O)c2C#N)cc1` is higher in TGI: 3.05 µM for the first, greater than 50 µM for the second.

`COC(c1ccc(C(C)(C)C)cc1)(c1ccc(C(C)(C)C)cc1)c1ccc(C(C)(C)C)cc1` and `COc1ccc(-c2nccn2-c2ccc(OC)cc2)cc1` cannot be ordered by TGI: greater than 100 µM for the first, greater than 100 µM for the second.

`CCC(C)(O)c1cnc(CC(C)C)c(=O)n1O` (stereo not drawn) and `CC(C)[C@H](O)C(=O)N[C@@H](C)C(=O)N[C@@H]1C(=O)N(C)CCc2ccccc21` cannot be ordered by TGI: greater than 100 µM for the first, greater than 100 µM for the second.

`Nc1cc2c(cc1Br)[nH]c(=O)c1ccccc12` and `O=C1c2ccccc2-c2c1c1ccccc1c(=O)n2CCN1CCNCC1` are within 1.5-fold of each other in TGI: 35.1 µM for the first, 26.4 µM for the second.

First: O=C(/C=C/c1ccccc1)c1ccccc1
Second: Cn1cc(-c2csc(-c3cn(CCCCN4CCCCC4)c4ccccc34)n2)c2cccnc21
The TGI of the first is higher: greater than 10 µM for the first, 3.03 µM for the second.

Compared with `COc1cc2c(/C=N\N=C(N)N)c[nH]c2cc1C`, `COc1ccc(C(=O)c2cc(OC)c(OC)c(OC)c2)cc1OC` is higher in TGI: 88.5 µM for the first, greater than 100 µM for the second.

First: C=CC(=O)N1CN(C(=O)C=C)CN(C(=O)C=C)C1
Second: CO[C@H]1Nc2c(ccc(C)c2O)C(=O)N2C=C(/C=C/C(N)=O)C[C@@H]12
The TGI of the first is 25-fold higher: 26.2 µM for the first, 1.03 µM for the second.

`COc1ccc(-c2cnnn2-c2nonc2-n2cccc2)cc1` and `CCCc1cc(=O)n2c(C(=O)Nc3ccc(Cl)cc3C)c(C(=O)Nc3ccc(F)cc3)sc2n1` cannot be ordered by TGI: greater than 94.7 µM for the first, greater than 150 µM for the second.

Compared with `ClC(Cl)=C1C(=C(Cl)Cl)C(Cl)(Cl)C1(Cl)Cl`, `CC1CC(O)C(=O)C(O[C@@H]2C[C@@H]3CC[C@@H]4[C@H](CC[C@]5(C)C(C6=CC(=O)OC6)CC[C@]45O)[C@@]3(C=O)C[C@H]2O)O1` (stereo partly drawn) is 310-fold lower in TGI: 16.6 µM for the first, 0.0542 µM for the second.

`CN(C)CCNCCN` and `CCCC(=O)C1=C(O)C(Cc2c(O)c(C)c(O)c(C(=O)CCC)c2O)=C(O)C(C)(C)C1=O` cannot be ordered by TGI: greater than 100 µM for the first, greater than 50 µM for the second.

With `O=C(Nc1cc(Nc2ncccc2-c2ncnc3nc[nH]c23)ccc1F)c1cc(C(F)(F)F)cc(C(F)(F)F)c1` the TGI was greater than 10 µM.

For `COC(=O)C1=COC(C)C2CN3CCc4c([nH]c5ccccc45)C3CC12` (stereo not drawn), the GI50 was 17.8 µM and > 100 µM.

`COC(=O)C1=COC(C)C2CN3CCc4c([nH]c5ccccc45)C3CC12` (stereo not drawn) was tested, and the TGI was 80.9 µM and > 100 µM.
